# Assays:
# Format in all cases: biochemical
# [1] = target: T1, MYCBP2cat (Homo sapiens, UniProt O75592); assay: NMNAT2 ubiquitination assay; settings: base lability and thiol resistance test
# T1 construct: GST-tagged MYCBP2cat (Ser4378-Phe4640), wt and mutants, were expressed at 16° C. overnight; GST (N, cleaved yes); made in house; host or cells: E. coli BL21-DE3
# T1 sequence (O75592 4416-4678 limits assumed): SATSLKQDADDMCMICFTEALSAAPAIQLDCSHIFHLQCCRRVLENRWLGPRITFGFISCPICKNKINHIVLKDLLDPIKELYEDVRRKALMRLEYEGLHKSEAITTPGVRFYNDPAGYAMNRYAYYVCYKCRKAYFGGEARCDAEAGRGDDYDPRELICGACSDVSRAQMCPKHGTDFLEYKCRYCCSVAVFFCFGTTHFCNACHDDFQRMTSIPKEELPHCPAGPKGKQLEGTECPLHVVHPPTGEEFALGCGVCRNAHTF
# Experimental: NMNAT2 (5 μM) was mixed with E1 (500 nM), UBE2D3 (10 μM), MYCBP2cat (10 μM), Ub (50 μM), ATP (10 mM) and made up with 10×pH 7.5 buffer (40 mM Na2H2PO4 pH 7.5, 150 mM NaCl, 5 mM MgCl2, 0.5 mM TCEP). The reactions were incubated at 37° C. for 1 hour and terminated by the addition of 4×LDS loading buffer (either non-reducing or reducing). For base lability test, reactions were supplemented with 0.14 N NaOH and then further incubated at 37° C. for 20 minutes.
# [2] = target: T2, GST-MYCBP2 (Homo sapiens, UniProt O75592); assay: Multiple turnover amino acid and peptide panel discharge assays; settings: for discharge activity / Ub modification in amino acid panel: amino acid nucleophile, UBE2D3~Ub, MYCBP2cat; for function as proxy substrate (hydroxy probe) of MYCBP2: tested herein as proxy substrates
# T2 construct: GST-tagged MYCBP2cat (Ser4378-Phe4640), wt and mutants, were expressed at 16° C. overnight; made in house; host or cells: E. coli BL21-DE3
# T2 sequence (O75592 4416-4678 limits assumed): T1 sequence (O75592 4416-4678 limits assumed)
# Experimental: Stock solutions (0.5 M) of amino acids were dissolved in MQ water and pH was adjusted to pH ˜8. Peptides of the sequence Ac-EGXGN-NH2 (X=K, S or T) were obtained from Bio-Synthesis Inc. Stock peptide solutions (200 mM) were dissolved in MQ water and pH was adjusted to pH ˜8. An E2 (UBE2D3) charging reaction was carried out in buffer (40 mM Na2HPO4—HCl pH 8.0, 150 mM NaCl, 0.5 mM TCEP) containing UBE1 (250-500 nM), UBE2D3 (20 μM), Ub (50 μM), or Cy3B-Ub (25 μM), MgCl2 (5 mM) and ATP 10 (mM). The reaction was incubated at 37° C. for 15 minutes and then equilibrated to 23° C. for 3 minutes. An equivalent volume of nucleophile sample containing small molecule/peptide nucleophile (100 mM) and GST-MYCBP2 (10 μM) was then added and incubated at 23° C. Samples were taken at the specified time points and analyzed as described for Tris/glycerol-mediated E2 discharge assay.
# Cy3B-Ub was visualized using a Chemidoc Gel Imaging System (Biorad). LC-MS was carried out as described for Tris/glycerol discharge but amino acid substrate samples were quenched by the addition of 2:1 parts quenching solution (75% acetonitrile, 2% TFA) and peptide substrate samples were quenched by addition of 1:1 parts quenching solution.
# [3] = target: T3, GST-MYCBP2cat (Homo sapiens, UniProt O75592); assay: Multiple turnover E2 discharge panel (threonine discharge); settings: 17 E2s tested
# T3 construct: GST-tagged MYCBP2cat (Ser4378-Phe4640), wt and mutants, were expressed at 16° C. overnight; made in house; host or cells: E. coli BL21-DE3
# T3 sequence (O75592 4416-4678 limits assumed): T1 sequence (O75592 4416-4678 limits assumed)
# Experimental: E2s were screened for threonine discharge activity with GST-MYCBP2cat as described for the amino acid panel. E2s were also incubated in the presence of threonine but in the absence of GST-MYCBP2cat. These samples provided a reference to distinguish between intrinsic E2˜Ub instability and E3-dependent discharge.
# [4] = target: T4, MYCBP2 (Homo sapiens, UniProt O75592); assay: Tris/glycerol-mediated E2 discharge assay with LC-MS analysis; settings: Tris 50 mM and glycerol ~65 mM in assay buffer
# T4 construct: GST-tagged MYCBP2cat (Ser4378-Phe4640), wt and mutants, were expressed at 16° C. overnight; GST (N); made in house; host or cells: E. coli BL21-DE3
# T4 sequence (O75592 4416-4678 limits assumed): T1 sequence (O75592 4416-4678 limits assumed)
# Experimental: Assays were carried out in buffer (50 mM Tris-HCl pH 7.5, 150 mM NaCl, 0.5 mM TCEP, 5 mM MgCl2) containing the indicated MYCBP2 mutant (15 μM), UBE1 (1.5 μM), UBE2D3 (15 μM), Ub (37 μM) and ATP (10 mM). The reactions were incubated at 37° C. for 30 minutes. Reactions were terminated by the addition of 4×LDS loading buffer (with and without ˜680 mM 2-mercaptoethanol). A C4572S sample was further incubated with 0.14 N NaOH at 37° C. for 20 minutes and samples were resolved by SDS-PAGE (4-12% NuPage gel) and visualized by Coomassie staining.
# Reactions were prepared as described for discharge assay. After 30 minutes, the reaction was analyzed using an Agilent 1200/6130 LC-MS system (Agilent Technologies) using a 10-75% gradient over 20 minutes (buffer A=H2O+0.05% TFA, buffer B=acetonitrile+0.04% TFA).
compound,measurement,setting,value
"NMNAT2: Nicotinamide Mononucleotide Adenyltransferase, putative MYCBP2 substrate",ubiquitination by MYCBP2cat in vitro,[1],hydroxide labile but thiol resistant ubiquitination
C[C@@H](O)[C@H](N)C(=O)O [threonine],discharge activity / Ub modification in amino acid panel,[2],strikingly enhanced
same,selectivity for threonine over serine,"[2]; amino acid substrates, MS-based quantification of Ub esterification",~10 fold
same,Threonine selectivity in a peptide context,"[2]; peptides Ac-EGXGN-NH2 (X=K, S or T)",3 fold
same,function as proxy substrate (hydroxy probe) of MYCBP2,[2],functional
"UBE2D3: E2 conjugating enzyme, N-terminally 6His-tagged recombinant protein",E2 partner activity with MYCBP2cat,[3],robust activity
UBE2D1: E2 conjugating enzyme,E2 partner activity with MYCBP2cat,[3],robust activity
N[C@@H](CO)C(=O)O [serine],function as proxy substrate (hydroxy probe) of MYCBP2,[2],functional
tris(hydroxymethyl)aminomethane,function as proxy substrate (hydroxy probe) of MYCBP2,[2],functional
same,conversion of Ub into condensation product with nucleophile,[4],quantitatively converted
NCCCC[C@H](N)C(=O)O [lysine],discharge activity / Ub modification in amino acid panel,[2],low level
"O=S(=O)(O)CCN1CCN(CCO)CC1 [HEPES, 4-(2-hydroxyethyl)-1-piperazineethanesulfonic acid]",function as proxy substrate (hydroxy probe) of MYCBP2,[2],functional
OCC(O)CO [glycerol],function as proxy substrate (hydroxy probe) of MYCBP2,[2],functional
same,conversion of Ub into condensation product with nucleophile,[4],quantitatively converted
